From patent publication US6355799B1, “Substituted benzene compounds, process for their preparation, and herbicidal and defoliant compositions containing them” (ISK Americas Incorporated, priority 1997, dated 2002)

Columns and labels:
Format in all cases: in vivo
[1] = system: field corn (Zea mays L., var. Dekalb 535, CORN); assay: Post-emerge test, crop safety; details: rating scale 0-100 (0 no damage, 100 complete death), 14 days after application
Method in brief: (§1)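 Each test used a mechanized track sprayer delivering 187 l/ha of acetone solution at 15–1000 g ai/ha. Post-emerge foliage at 2–3 leaves was treated with added 0.25% v/v non-ionic surfactant and bottom-watered only. Injury was assessed on day 14, where 100 means total kill.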

[2] = system: upland rice (Oryza sp., var. Tebonnet, RICE); assay: Post-emerge test, crop safety; details: rating scale 0-100 (0 no damage, 100 complete death), 14 days after application
Method in brief: as §1

[3] = system: sicklepod (Cassia obtusifolia, CASOB); assay: Pre-emerge test, greenhouse herbicide activity screening; details: rating scale 0-100, 14 days after application
Method in brief: (§2)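 Plants grown in 10 cm pots of sandy loam mix received acetone-dissolved compounds through a moving flat-fan nozzle. Doses ranged from 15 to 1000 g ai/ha. Pre-emerge pots were seeded one day earlier, post-emerge pots 8–21 days earlier. Fourteen days on, each pot was graded 0–100 for damage.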

[4] = system: velvetleaf (Abutilon theophrasti, ABUTH); assay: as above; details: rating scale 0-100, 14 days after application
Method in brief: as §2

[5] = system: barnyardgrass (Echinochloa crus-galli, ECHCG); assay: as above; details: rating scale 0-100, 14 days after application
Method in brief: as §2

[6] = system: green foxtail (Setaria viridis, SETVI); assay: as above; details: rating scale 0-100, 14 days after application
Method in brief: as §2

[7] = system: large crabgrass (Digitaria sanguinalis, DIGSA); assay: as above; details: rating scale 0-100, 14 days after application
Method in brief: as §2

[8] = system: lambsquarters (Chenopodium album, CHEAL); assay: as above; details: rating scale 0-100, 14 days after application
Method in brief: as §2

[9] = system: ivyleaf morningglory (Ipomoea hederacea, IPOHE); assay: as above; details: rating scale 0-100, 14 days after application
Method in brief: as §2

[10] = system: johnsongrass (Sorghum halepense, SORHA); assay: as above; details: rating scale 0-100, 14 days after application
Method in brief: as §2

[11] = system: sicklepod (Cassia obtusifolia, CASOB); assay: Post-emerge test, greenhouse herbicide activity screening; details: rating scale 0-100 (0 no damage, 100 complete death), 14 days after application
Method in brief: (§3)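 Herbicidal damage is scored 0 (none) to 100 (complete plant death) two weeks after a simulated field spray. Rates span 15–1000 g ai/ha, delivered in acetone at 187 l/ha. For post-emergence treatments, plants have 2–3 leaves and the spray carries 0.25% v/v non-ionic surfactant.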

[12] = system: velvetleaf (Abutilon theophrasti, ABUTH); assay: as above; details: rating scale 0-100 (0 no damage, 100 complete death), 14 days after application
Method in brief: as §3

[13] = system: barnyardgrass (Echinochloa crus-galli, ECHCG); assay: as above; details: rating scale 0-100 (0 no damage, 100 complete death), 14 days after application
Method in brief: as §3

[14] = system: green foxtail (Setaria viridis, SETVI); assay: as above; details: rating scale 0-100 (0 no damage, 100 complete death), 14 days after application
Method in brief: as §3

[15] = system: large crabgrass (Digitaria sanguinalis, DIGSA); assay: as above; details: rating scale 0-100 (0 no damage, 100 complete death), 14 days after application
Method in brief: as §3

[16] = system: redroot pigweed (Amaranthus retroflexus, AMARE); assay: as above; details: rating scale 0-100 (0 no damage, 100 complete death), 14 days after application
Method in brief: as §3

[17] = system: lambsquarters (Chenopodium album, CHEAL); assay: as above; details: rating scale 0-100 (0 no damage, 100 complete death), 14 days after application
Method in brief: as §3

[18] = system: ivyleaf morningglory (Ipomoea hederacea, IPOHE); assay: as above; details: rating scale 0-100 (0 no damage, 100 complete death), 14 days after application
Method in brief: as §3

[19] = system: common ragweed (Ambrosia artemisizfolia L., AMBEL); assay: as above; details: rating scale 0-100 (0 no damage, 100 complete death), 14 days after application
Method in brief: as §3

[20] = system: johnsongrass (Sorghum halepense, SORHA); assay: as above; details: rating scale 0-100 (0 no damage, 100 complete death), 14 days after application
Method in brief: as §3

[21] = system: redroot pigweed (Amaranthus retroflexus, AMARE); assay: Pre-emerge test, greenhouse herbicide activity screening; details: rating scale 0-100, 14 days after application
Method in brief: as §3

[22] = system: field corn (Zea mays L., var. Dekalb 535, CORN); assay: Pre-emerge test, crop safety; details: rating scale 0-100, 14 days after application
Method in brief: as §3

[23] = system: upland rice (Oryza sp., var. Tebonnet, RICE); assay: Pre-emerge test, crop safety; details: rating scale 0-100, 14 days after application
Method in brief: as §3

For `CCCOC(=O)C(Cl)Cc1c(OC)c(Cl)cc(F)c1-n1c(=O)cc(C(F)(F)F)n(C)c1=O` (single isomer, unassigned) [14-6], the “Post-emerge phytotoxicity rating CORN (crop damage)” value ([1]; Rate 63 g ai/ha) was 50, the “Post-emerge phytotoxicity rating CORN (crop damage)” value ([1]; Rate 250 g ai/ha) was 60 and the “Post-emerge phytotoxicity rating RICE (crop damage)” value ([2]; Rate 63 g ai/ha) was 0. For the same compound, the “Post-emerge phytotoxicity rating RICE (crop damage)” value ([2]; Rate 250 g ai/ha) was 35, the “Pre-emerge herbicidal activity, phytotoxicity rating CASOB” value ([3]; 63 g ai/ha) was 30 and the “Pre-emerge herbicidal activity, phytotoxicity rating CASOB” value ([3]; 250 g ai/ha) was 30. The “Pre-emerge herbicidal activity, phytotoxicity rating ABUTH” value ([4]; 63 g ai/ha) was 30, the “Pre-emerge herbicidal activity, phytotoxicity rating ABUTH” value ([4]; 250 g ai/ha) was 100 and the “Pre-emerge herbicidal activity, phytotoxicity rating ECHCG” value ([5]; 63 g ai/ha) was 0. The “Pre-emerge herbicidal activity, phytotoxicity rating ECHCG” value ([5]; 250 g ai/ha) was 70, the “Pre-emerge herbicidal activity, phytotoxicity rating SETVI” value ([6]; 63 g ai/ha) was 10 and the “Pre-emerge herbicidal activity, phytotoxicity rating SETVI” value ([6]; 250 g ai/ha) was 100. For the same compound, the “Pre-emerge herbicidal activity, phytotoxicity rating DIGSA” value ([7]; 63 g ai/ha) was 90, the “Pre-emerge herbicidal activity, phytotoxicity rating DIGSA” value ([7]; 250 g ai/ha) was 100 and the “Pre-emerge herbicidal activity, phytotoxicity rating CHEAL” value ([8]; 63 g ai/ha) was 20. For the same compound, the “Pre-emerge herbicidal activity, phytotoxicity rating CHEAL” value ([8]; 250 g ai/ha) was 100, the “Pre-emerge herbicidal activity, phytotoxicity rating IPOHE” value ([9]; 63 g ai/ha) was 10 and the “Pre-emerge herbicidal activity, phytotoxicity rating IPOHE” value ([9]; 250 g ai/ha) was 20. The “Pre-emerge herbicidal activity, phytotoxicity rating SORHA” value ([10]; 63 g ai/ha) was 0, the “Pre-emerge herbicidal activity, phytotoxicity rating SORHA” value ([10]; 250 g ai/ha) was 30 and the “Post-emerge Herbicidal Activity, phytotoxicity rating CASOB” value ([11]; Rate 63 g ai/ha) was 50. The “Post-emerge Herbicidal Activity, phytotoxicity rating CASOB” value ([11]; Rate 250 g ai/ha) was 100, the “Post-emerge Herbicidal Activity, phytotoxicity rating ABUTH” value ([12]; Rate 63 g ai/ha) was 90 and the “Post-emerge Herbicidal Activity, phytotoxicity rating ABUTH” value ([12]; Rate 250 g ai/ha) was 100. For the same compound, the “Post-emerge Herbicidal Activity, phytotoxicity rating ECHCG” value ([13]; Rate 63 g ai/ha) was 99, the “Post-emerge Herbicidal Activity, phytotoxicity rating ECHCG” value ([13]; Rate 250 g ai/ha) was 100 and the “Post-emerge Herbicidal Activity, phytotoxicity rating SETVI” value ([14]; Rate 63 g ai/ha) was 30. For the same compound, the “Post-emerge Herbicidal Activity, phytotoxicity rating SETVI” value ([14]; Rate 250 g ai/ha) was 80, the “Post-emerge Herbicidal Activity, phytotoxicity rating DIGSA” value ([15]; Rate 63 g ai/ha) was 50 and the “Post-emerge Herbicidal Activity, phytotoxicity rating DIGSA” value ([15]; Rate 250 g ai/ha) was 75. For the same compound, the “Post-emerge Herbicidal Activity, phytotoxicity rating AMARE” value ([16]; Rate 63 g ai/ha) was 95, the “Post-emerge Herbicidal Activity, phytotoxicity rating AMARE” value ([16]; Rate 250 g ai/ha) was 100 and the “Post-emerge Herbicidal Activity, phytotoxicity rating CHEAL” value ([17]; Rate 63 g ai/ha) was 80. For the same compound, the “Post-emerge Herbicidal Activity, phytotoxicity rating CHEAL” value ([17]; Rate 250 g ai/ha) was 100, the “Post-emerge Herbicidal Activity, phytotoxicity rating IPOHE” value ([18]; Rate 63 g ai/ha) was 70 and the “Post-emerge Herbicidal Activity, phytotoxicity rating IPOHE” value ([18]; Rate 250 g ai/ha) was 100. The “Post-emerge Herbicidal Activity, phytotoxicity rating AMBEL” value ([19]; Rate 63 g ai/ha) was 40, the “Post-emerge Herbicidal Activity, phytotoxicity rating AMBEL” value ([19]; Rate 250 g ai/ha) was 80 and the “Post-emerge Herbicidal Activity, phytotoxicity rating SORHA” value ([20]; Rate 63 g ai/ha) was 50. The “Post-emerge Herbicidal Activity, phytotoxicity rating SORHA” value ([20]; Rate 250 g ai/ha) was 65, the “Pre-emerge herbicidal activity, phytotoxicity rating AMARE” value ([21]; 63 g ai/ha) was 100 and the “Pre-emerge herbicidal activity, phytotoxicity rating AMARE” value ([21]; 250 g ai/ha) was 100. The “Pre-emerge phytotoxicity rating, crop damage CORN” value ([22]; 63 g ai/ha) was 0, the “Pre-emerge phytotoxicity rating, crop damage CORN” value ([22]; 250 g ai/ha) was 5 and the “Pre-emerge phytotoxicity rating, crop damage RICE” value ([23]; 63 g ai/ha) was 15. For the same compound, the “Pre-emerge phytotoxicity rating, crop damage RICE” value ([23]; 250 g ai/ha) was 50.
